Source: patent publication US8618080B2, “Immunomodulatory compounds and treatment of diseases related to an overproduction of inflammatory cytokines” (OM Pharma, priority 2006, dated 2013)

How the values were obtained:
[1] = system: LACK-sensitized and challenged Balb/c ByJ mice; assay: LACK-induced allergic asthma model, prophylactic i.p. treatment; type: in vivo; settings: 1 mg/Kg i.p. prophylactic
Experimental: Females Balb/c ByJ mice of 6-week old were purchased from the Centre d'Elevage Janvier (CERJ, Le Genest-St-lsle, France). All the mice were sensitised by 2 i.p. injections of 10 μg LACK protein precipitated in 2 mg of Alum (PerBio Science France SAS, Brebières, France) at days 0 and 7.
Animals were divided in groups, as follow: • LACK-sensitized and saline-challenged mice (4 mice) • LACK-sensitized and challenged mice (8 mice) • OM-197-MP-AC-treated, LACK-sensitized and challenged mice (8 mice)
Mice of the third group were treated intraperitoneally with 1 mg/Kg (20 μg per mouse) of OM-197-MP-AC. Mice were treated on days: −1, 1, 2, 3, 6, 8, 9, 10 and 11. From day 16 to day 21, mice of groups B and C were exposed to a daily 20-min aerosol challenge of a LACK solution (0.15%) whereas mice of the saline group received a saline solution as control.
AHR was measured for all the mice one day after the last antigen challenge by whole-body plethysmography (Emka) in response to increasing concentrations (6-25 mg/ml) of inhaled methacholine (acetyl methyl choline, Sigma). AHR is expressed as enhanced pause (Penh, see FIG. 4), a dimensionless parameter perfectly correlated to airway compliance and resistance calculated value, which correlates with measurement of airway resistance, impedance, and intrapleural pressure.
All the mice were bled by heart puncture one day after the last aerosol. Total IgE were quantified by ELISA using rat EM-95 anti-IgE mAbs as coating antibody and rat anti-IgE mAbs coupled to biotin as second antibody as described (Julia et al., 2002).
Individual mice were bled and a canula was inserted into their trachea. Lungs were washed 3 times with 1 ml of warmed PBS. Cells were washed with PBS, resuspended in 300 μl, and counted using a Burker-Türk chamber. For differential BAL cell counts, cytospin preparations were made and stained with Wright/Giemsa coloration. The respective numbers of neutrophils, eosinophils, and other mononuclear cells were determined by microscopic examination. Only the percentage of eosinophils (FIG. 5) is reported here.
To investigate lung cytokine contents of treated and untreated animals, protein extracts were prepared from lungs of LACK-sensitized and PBS-challenged wt mice (group “Control”), LACK-sensitized and challenged wt mice (group Asthma”), OM-197-MP-AC-treated wt mice (group “OM-197”). IL-4, IL-5, IL-13 contents were analyzed by multiplex analysis using FACSArray.
Treated or untreated LACK-sensitized mice (see above) were next challenged with daily aerosol of LACK for five consecutive days. One day after the last aerosol, AHR was measured by whole-body plethysmography in response to increasing concentrations of aerosolized methacholine.
To further investigate the effects of prophylactic OM-197-MP-AC on allergic airway inflammation, proteins were extracted from lungs of both treated and untreated WT mice, and cytokines known to play a important role in asthma (IL-4, IL-5 and IL-13) were quantified by multiplex analysis using CBA array beads and FACSarray. Data were normalized to the total quantity of proteins and given as pg of cytokine per mg of lung proteins.

[2] = system: murine DC cells; assay: LPS-induced IL-12, TNF-α and IL-10 production by bone marrow derived dendritic cells; type: cell-based, murine (C57BL/7); settings: murine BM-derived DC; compound 0.01-100 μg/ml 1 h 30 before LPS 1 μg/ml; 20 h; ELISA
Experimental: Femora and tibiae from two male C57BL/7, 6 week-old (Charles River Laboratories France), were removed, stripped of muscles and tendons, and desinfected with 70% ethanol. Both ends of each bone were cut and the marrow was flushed with HBSS (Gibco BRL) using a syringe with a 26-gauge needle. The resulting cell suspension was centrifuged for 5 min. at 500 g and washed in HBSS. The cells were resuspended at 3×10^5 cells/ml in RPMI-1640 (Gibco BRL) supplemented with 2 mM L-glutamin (Sigma), 100 U/ml penicillin (Sigma), 100 μg/ml streptomycin (Sigma), 50 μM β-mercaptoethanol (Sigma), 10% heat-inactivated FCS (Sigma) and 15 ng/ml murine rGM-CSF (R&D).
To generate bone marrow (BM) derived dendritic cells (DC), BM leukocytes were cultured in 100-mm bacteriological petri dishes (Falcon 1029) for 8 days at 37° C. in 5% CO2. On day 0, 10 ml of cell suspension were seeded per dish. On day 3, another 10 ml of freshly prepared medium were added to each plate and on day 6, 9 ml of top medium were carefully removed from each plate and replaced by 10 ml of fresh medium.
Non-adherent cells of the 8-day old BM cell cultures were collected, centrifuged for 5 min. at 500 g, and resuspended at 1.25×10^6 cells/ml in supplemented RPMI containing 10 ng/ml GM-CSF. The cells were then seeded in 24-well tissue culture plates ([…]) and incubated for 1 h 30 at 37° C. in 5% CO2 in the absence or presence of OM-294-DP or OM-197-MP-AC (0.01-100 μg/ml/200 μl/well). LPS (E.coli O26:B6, Sigma), was then added at 1 μg/ml, and the plates were further incubated. After 20 h incubation, the supernatants were collected for analysis of cytokines. IL-12p70, IL-10, and TNF-α concentrations in DC culture supernatants were measured by ELISA using OptEIA matched Ab pairs from BD Pharmingen. Supersignal ELISA Pico chemiluminescent peroxidase substrate (BD Pharmingen) was used for the detection by luminometry (Wallac 1420 multilabel counter Victor-2). The assays were performed according to manufacturer's instructions.
FIG. 1: IL-12 (left panels) and IL-10 (right panels) secretion by murine DC stimulated by LPS (1 μg/ml) alone, or first during 90 minutes with the indicated concentrations (in μg/ml) of OM-197-MP-AC (A) or 294-DP (B), and then by LPS (1 μg/ml) for 20 additional hours. The supernatants were collected from the DC cultures and analyzed by ELISA for the presence of IL-12 and IL-10.
FIG. 2: TNF-α secretion by murine DC stimulated by LPS (1 μg/ml) alone, or first during 90 minutes with the indicated concentrations (in μg/ml) of 294-DP (294), or of OM-197-MP-AC (197), and then by LPS (1 μg/ml) for 20 additional hours. The supernatants were collected from the DC cultures and analyzed by ELISA for the presence of TNF-α.

[3] = lung protein extracts, CBA/FACSArray

## CCCCCCCCCCCC(=O)O[C@H](CCCCCCCCCCC)CC(=O)N[C@@H](CCOP(=O)(O)O)C(=O)NCCC[C@H](COC(=O)CCCCCN)NC(=O)C[C@H](O)CCCCCCCCCCC [OM-197-MP-AC, (3S, 9R)-3-[(R)-3-dodecanoyloxytetradecanoylamino]-4-oxo-5-aza-9-[(R)-3-hydroxytetradecanoylamino]-decan-1, 10-diol 1-dihydrogenophosphate 10-(6-aminohexanoate)]
[1]
  Eosinophils in BAL, less than untreated control mice: 3 times less
[1]; ELISA
  Total IgE in sera, less than untreated sensitized, challenged mice: 2 fold less
[1]; lung protein extracts
  Amount of KC produced in lungs: reduced by half
  Lung IFN-γ, less than untreated mice: 2 times less
  Lung IL-6, less than untreated mice: 1.5 times less
  Lung MCP-1, less than untreated animals: 1.8 times less
[1]; [3]
  Lung IL-4, less than untreated mice: 5 times less
  Lung IL-5, less than untreated mice: 5 times less
  Lung IL-13, less than untreated mice: 3.5 times less
[1]; whole-body plethysmography one day after last challenge
  Airway hyperresponsiveness (AHR, Penh) to methacholine: did not exhibit AHR
[2]
  LPS-induced production of IL-10: increase
  LPS-induced production of IL-12: decrease
  LPS-induced production of TNF-α: decrease
